Results on 11 molecules are retold here after patent US20210395262A1, “INHIBITORS OF HUMAN IMMUNODEFICIENCY VIRUS REPLICATION” (ViiV HEALTHCARE UK (NO.5) LIMITED, priority 2018, published 2021).

Data set [1] can be described thus: Compound cytotoxicity, XTT-based colorimetric assay. Particulars: human; uninfected MT2 cells, day 4, XTT; read-out: CC50. The data set is classed as cell-based. On the procedure: Compound cytotoxicity and the corresponding CC50 values were determined using the same protocol as described in the antiviral assay except that uninfected cells were used. Cytotoxicity was assessed on day 4 in uninfected MT2 cells by using a XTT (2,3-bis[2-Methoxy-4-nitro-5-sulfophenyl]-2H-tetrazolium-5-carboxyanilide inner salt)-based colorimetric assay (Sigma-Aldrich, St Louis, Mo.).
On the technique in general: Tetrazolium dyes change colour on reduction, which living cells bring about.

The next data set relates to recombinant NL4-3 virus. The data set can be described thus: HIV cell culture assay (antiviral activity, luciferase readout in MT-2 cells). The data set is classed as cell-based. The note with it: Human immunodeficiency virus 1, NL43, MT2. On the procedure: HIV cell culture assay—MT-2 cells, 293T cells and the proviral DNA clone of NL4-3 virus were obtained from the […] AIDS Research and Reference Reagent Program. MT-2 cells were propagated in RPMI 1640 media supplemented with 10% heat inactivated fetal bovine serum (FBS), […] penicillin G and up to 100 units/mL streptomycin. The 293T cells were propagated in DMEM media supplemented with 10% heat inactivated FBS, […] penicillin G and […] streptomycin. A recombinant NL4-3 proviral clone, in which a section of the nef gene was replaced with the Renilla luciferase gene, was used to make the reference virus used in these studies. The recombinant virus was prepared through transfection of the recombinant NL4-3 proviral clone into 293T cells using Transit-293 Transfection Reagent from Mirus Bio LLC (Madison, Wis.). Supernatent was harvested after 2-3 days and the amount of virus present was titered in MT-2 cells using luciferase enzyme activity as a marker by measuring luciferase enzyme activity. Luciferase was quantitated using the EnduRen Live Cell Substrate from Promega (Madison, Wis.). Antiviral activities of compounds toward the recombinant virus were quantified by measuring luciferase activity in MT-2 cells infected for 4-5 days with the recombinant virus in the presence of serial dilutions of the compound.
The 50% effective concentration (EC50) was calculated by using the exponential form of the median effect equation where (Fa)=1/[1+(ED50/drug conc.)m] (Johnson V A, Byington R T. Infectivity Assay. In Techniques in HIV Research. ed. Aldovini A, Walker B D. 71-76. New York: Stockton Press. 1990). The 50% inhibitory concentration (EC50) was calculated by using the exponential form of the median effect equation where percent inhibition=1/[1+(EC50/drug concentration)m], where m is a parameter that reflects the slope of the concentration-response curve.

pEC50: −log10 of the molar value.

Consider `Cn1nc(NS(C)(=O)=O)c2c(Cl)ccc(-n3c([C@H](Cc4cc(F)cc(F)c4)NC(=O)Cn4nc(C(F)F)c5c4C(F)(F)[C@@H]4C[C@H]54)nc4cc(N5CCOCC5)ccc4c3=O)c21` (atropisomer, axis not shown; (P)) [Example 12, N—((S)-1-((3P)-3-(4-chloro-1-methyl-3-(methylsulfonamido)-1H-indazol-7-yl)-7-morpholino-4-oxo-3,4-dihydroquinazolin-2-yl)-2-(3,5-difluorophenyl)ethyl)-2-((3bS,4aR)-3-(difluoromethyl)-5,5-difluoro-3b,4,4a,5-tetrahydro-1H-cyclopropa[3,4]cyclopenta[1,2-c]pyrazol-1-yl)acetamide], for which, in data set [1], the CC50 at 4 days was > 1000 nM. Moreover, in the data set with recombinant NL4-3 virus, the pEC50 was 10.46.

Consider `Cn1nc(NS(C)(=O)=O)c2c(Cl)ccc(-n3c([C@H](Cc4cc(F)cc(F)c4)NC(=O)Cn4nc(C(F)F)c5c4C(F)(F)[C@@H]4C[C@H]54)nc4cc(N5CCS(=O)(=O)CC5)ccc4c3=O)c21` (atropisomer, axis not shown; (P)) [Example 13, N—((S)-1-((3P)-3-(4-chloro-1-methyl-3-(methylsulfonamido)-1H-indazol-7-yl)-7-(1,1-dioxidothiomorpholino)-4-oxo-3,4-dihydroquinazolin-2-yl)-2-(3,5-difluorophenyl)ethyl)-2-((3bS,4aR)-3-(difluoromethyl)-5,5-difluoro-3b,4,4a,5-tetrahydro-1H-cyclopropa[3,4]cyclopenta[1,2-c]pyrazol-1-yl)acetamide], for which the CC50 at 4 days in data set [1] was > 10000 nM. For the same molecule, the pEC50 in the data set on recombinant NL4-3 virus is 9.33.

For the molecule `Cn1nc(NS(C)(=O)=O)c2c(Cl)ccc(-n3c([C@H](Cc4cc(F)cc(F)c4)NC(=O)Cn4nc(C(F)F)c5c4C(F)(F)[C@@H]4C[C@H]54)nc4cc(N5CCCCC5)ccc4c3=O)c21` (atropisomer, axis not shown; (P)) [Example 14, N—((S)-1-((3P)-3-(4-chloro-1-methyl-3-(methylsulfonamido)-1H-indazol-7-yl)-4-oxo-7-(piperidin-1-yl)-3,4-dihydroquinazolin-2-yl)-2-(3,5-difluorophenyl)ethyl)-2-((3bS,4aR)-3-(difluoromethyl)-5,5-difluoro-3b,4,4a,5-tetrahydro-1H-cyclopropa[3,4]cyclopenta[1,2-c]pyrazol-1-yl)acetamide], the CC50 at 4 days in data set [1] is > 1000 nM. For the same molecule, the pEC50 in the data set on recombinant NL4-3 virus is 9.62.

With `C[C@@H]1CN(c2ccc3c(=O)n(-c4ccc(Cl)c5c(NS(C)(=O)=O)nn(C)c45)c([C@H](Cc4cc(F)cc(F)c4)NC(=O)Cn4nc(C(F)F)c5c4C(F)(F)[C@@H]4C[C@H]54)nc3c2)C[C@H](C)O1` (atropisomer, axis not shown; (P)) [Example 15, N—((S)-1-((3P)-3-(4-chloro-1-methyl-3-(methylsulfonamido)-1H-indazol-7-yl)-7-((2S,6R)-2,6-dimethylmorpholino)-4-oxo-3,4-dihydroquinazolin-2-yl)-2-(3,5-difluorophenyl)ethyl)-2-((3bS,4aR)-3-(difluoromethyl)-5,5-difluoro-3b,4,4a,5-tetrahydro-1H-cyclopropa[3,4]cyclopenta[1,2-c]pyrazol-1-yl)acetamide], the CC50 at 4 days in data set [1] was > 10000 nM. Also, the pEC50 in the data set with recombinant NL4-3 virus was 10.46.

With `C[C@@H]1CN(c2ccc3c(=O)n(-c4ccc(Cl)c5c(NS(C)(=O)=O)nn(C)c45)c([C@H](Cc4cc(F)cc(F)c4)NC(=O)Cn4nc(C(F)F)c5c4C(F)(F)[C@@H]4C[C@H]54)nc3c2)C[C@H](C)N1C` (atropisomer, axis not shown; (P)) [Example 16, N—((S)-1-((3P)-3-(4-chloro-1-methyl-3-(methylsulfonamido)-1H-indazol-7-yl)-4-oxo-7-((3S,5R)-3,4,5-trimethylpiperazin-1-yl)-3,4-dihydroquinazolin-2-yl)-2-(3,5-difluorophenyl)ethyl)-2-((3bS,4aR)-3-(difluoromethyl)-5,5-difluoro-3b,4,4a,5-tetrahydro-1H-cyclopropa[3,4]cyclopenta[1,2-c]pyrazol-1-yl)acetamide], the CC50 at 4 days in data set [1] was > 1000 nM. In addition, in the data set on recombinant NL4-3 virus, the pEC50 was 10.10.

Consider `Cn1nc(NS(C)(=O)=O)c2c(Cl)ccc(-n3c([C@H](Cc4cc(F)cc(F)c4)NC(=O)Cn4nc(C(F)F)c5c4C(F)(F)[C@@H]4C[C@H]54)nc4cc(N5CCCOCC5)ccc4c3=O)c21` (atropisomer, axis not shown; (P)) [Example 17, N—((S)-1-((3P)-3-(4-chloro-1-methyl-3-(methylsulfonamido)-1H-indazol-7-yl)-7-(1,4-oxazepan-4-yl)-4-oxo-3,4-dihydroquinazolin-2-yl)-2-(3,5-difluorophenyl)ethyl)-2-((3bS,4aR)-3-(difluoromethyl)-5,5-difluoro-3b,4,4a,5-tetrahydro-1H-cyclopropa[3,4]cyclopenta[1,2-c]pyrazol-1-yl)acetamide], for which, in data set [1], the CC50 at 4 days was > 1000 nM. The pEC50 in the data set on recombinant NL4-3 virus was 10.16.

With `Cn1nc(NS(C)(=O)=O)c2c(Cl)ccc(-n3c([C@H](Cc4cc(F)cc(F)c4)NC(=O)Cn4nc(C(F)F)c5c4C(F)(F)[C@@H]4C[C@H]54)nc4cc(N5CCC5)ccc4c3=O)c21` (atropisomer, axis not shown; (P)) [Example 18, N—((S)-1-(7-(azetidin-1-yl)-(3P)-3-(4-chloro-1-methyl-3-(methylsulfonamido)-1H-indazol-7-yl)-4-oxo-3,4-dihydroquinazolin-2-yl)-2-(3,5-difluorophenyl)ethyl)-2-((3bS,4aR)-3-(difluoromethyl)-5,5-difluoro-3b,4,4a,5-tetrahydro-1H-cyclopropa[3,4]cyclopenta[1,2-c]pyrazol-1-yl)acetamide], the CC50 at 4 days in data set [1] was > 1000 nM. Further, the pEC50 in the data set with recombinant NL4-3 virus is 10.18.

On to `Cn1nc(NS(C)(=O)=O)c2c(Cl)ccc(-n3c([C@H](Cc4cc(F)cc(F)c4)NC(=O)Cn4nc(C(F)F)c5c4C(F)(F)[C@@H]4C[C@H]54)nc4cc(N5CCCC5)ccc4c3=O)c21` (atropisomer, axis not shown; (P)) [Example 19, N—((S)-1-((3P)-3-(4-chloro-1-methyl-3-(methylsulfonamido)-1H-indazol-7-yl)-4-oxo-7-(pyrrolidin-1-yl)-3,4-dihydroquinazolin-2-yl)-2-(3,5-difluorophenyl)ethyl)-2-((3bS,4aR)-3-(difluoromethyl)-5,5-difluoro-3b,4,4a,5-tetrahydro-1H-cyclopropa[3,4]cyclopenta[1,2-c]pyrazol-1-yl)acetamide], for which, in data set [1], the cytotoxic concentration (CC50) at 4 days is > 1000 nM. The pEC50 in the data set on recombinant NL4-3 virus is 9.65.

Turning to `Cn1nc(NS(C)(=O)=O)c2c(Cl)ccc(-n3c([C@H](Cc4cc(F)cc(F)c4)NC(=O)Cn4nc(C(F)F)c5c4C(F)(F)[C@@H]4C[C@H]54)nc4cc(NCc5ccccc5)ccc4c3=O)c21` (atropisomer, axis not shown; (P)) [Example 20, N—((S)-1-(7-(benzylamino)-(3P)-3-(4-chloro-1-methyl-3-(methylsulfonamido)-1H-indazol-7-yl)-4-oxo-3,4-dihydroquinazolin-2-yl)-2-(3,5-difluorophenyl)ethyl)-2-((3bS,4aR)-3-(difluoromethyl)-5,5-difluoro-3b,4,4a,5-tetrahydro-1H-cyclopropa[3,4]cyclopenta[1,2-c]pyrazol-1-yl)acetamide], in data set [1], the CC50 at 4 days is > 1000 nM. Also, in the data set with recombinant NL4-3 virus, the pEC50 was 9.42.

With `Cn1nc(NS(C)(=O)=O)c2c(Cl)ccc(-n3c([C@H](Cc4cc(F)cc(F)c4)NC(=O)Cn4nc(C(F)F)c5c4C(F)(F)[C@@H]4C[C@H]54)nc4cc(N5CC6(COC6)C5)ccc4c3=O)c21` (atropisomer, axis not shown; (P)) [Example 21, N—((S)-1-((3P)-3-(4-chloro-1-methyl-3-(methylsulfonamido)-1H-indazol-7-yl)-4-oxo-7-(2-oxa-6-azaspiro[3.3]heptan-6-yl)-3,4-dihydroquinazolin-2-yl)-2-(3,5-difluorophenyl)ethyl)-2-((3bS,4aR)-3-(difluoromethyl)-5,5-difluoro-3b,4,4a,5-tetrahydro-1H-cyclopropa[3,4]cyclopenta[1,2-c]pyrazol-1-yl)acetamide], the CC50 at 4 days in data set [1] was > 500 nM. Further, the pEC50 in the data set on recombinant NL4-3 virus was 10.19.

On to `Cn1nc(NS(C)(=O)=O)c2c(Cl)ccc(-n3c([C@H](Cc4cc(F)cc(F)c4)NC(=O)Cn4nc(C(F)F)c5c4C(F)(F)[C@@H]4C[C@H]54)nc4cc(N5CCC(O)CC5)ccc4c3=O)c21` (atropisomer, axis not shown; (P)) [Example 24, N—((S)-1-((3P)-3-(4-chloro-1-methyl-3-(methylsulfonamido)-1H-indazol-7-yl)-7-(4-hydroxypiperidin-1-yl)-4-oxo-3,4-dihydroquinazolin-2-yl)-2-(3,5-difluorophenyl)ethyl)-2-((3bS,4aR)-3-(difluoromethyl)-5,5-difluoro-3b,4,4a,5-tetrahydro-1H-cyclopropa[3,4]cyclopenta[1,2-c]pyrazol-1-yl)acetamide], for which the CC50 at 4 days in data set [1] is > 500 nM. Further, the pEC50 with recombinant NL4-3 virus was 9.93.

A word on the CC50: it is the concentration giving 50% cytotoxicity. One may read the pEC50 as the negative decadic logarithm of the EC50, by convention in mol/L.
